We go through 32 molecules from patent US12139499B2, “Heteroaryl compounds for treating Huntington's disease” (PTC THERAPEUTICS, INC., priority 2018, dated 2024).

Molecules are shown by their SMILES.

The assay has as its system Endogenous Huntingtin Protein. Kind of assay: Endogenous Huntingtin Protein Assay (ELISA-based MSD electrochemiluminescence). It is filed as cell-based. The conditions noted are these: Table 1. The gist of the method: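 Sandwich MSD electrochemiluminescence immunoassay. Capture used MW1 (expanded polyglutamine) or MAB2166 antibody coated at 1 μg/mL overnight at 4 °C. Samples were bound overnight at 4 °C, then a rabbit monoclonal detection antibody and SULFO-TAG anti-rabbit, each at 0.25 μg/mL, were applied for 1 h at room temperature.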
In general terms: ELISA stands for enzyme-linked immunosorbent assay.
On to `Oc1cc(-c2c[nH]nc2F)ccc1-c1cc2sc(N3CC4(CCNCC4)C3)nc2nn1` [Compound 341, 2-[6-(2,7-diazaspiro[3.5]nonan-2-yl)[1,3]thiazolo[4,5-c]pyridazin-3-yl]-5-(3-fluoro-1H-pyrazol-4-yl)phenol], for which the IC50 (in general, the concentration needed to halve the response being measured) was 500 to 1000 nM.
For `CN(c1nc2ncc(-c3ccc4nn(C)cc4c3)cc2s1)C1CC(C)(C)NC(C)(C)C1` [Compound 16, N-methyl-6-(2-methyl-2H-indazol-5-yl)-N-(2,2,6,6-tetramethylpiperidin-4-yl)[1,3]thiazolo[4,5-b]pyridin-2-amine], the IC50 lay within 500 to 1000 nM.
Molecule `CCc1cc(-c2ccc3nc(N(C)C4CC(C)(C)NC(C)(C)C4)sc3c2)cn2cc(C)nc12` [Compound 93, 6-(8-ethyl-2-methylimidazo[1,2-a]pyridin-6-yl)-N-methyl-N-(2,2,6,6-tetramethylpiperidin-4-yl)-1,3-benzothiazol-2-amine] came in with an IC50 of 100 to 500 nM.
`COc1cc(-c2cc(F)c3nc(C4CCNCC4)sc3c2)nn2cc(C)nc12` [Compound 151, 6-[4-fluoro-2-(piperidin-4-yl)-1,3-benzothiazol-6-yl]-8-methoxy-2-methylimidazo[1,2-b]pyridazine] gave an IC50 of at most 100 nM.
In turn, `CN(c1nc2nnc(-c3ccc(-c4cn[nH]c4)cc3O)cc2s1)C1CCN(CCO)CC1` [Compound 399, 2-(6-{[1-(2-hydroxyethyl)piperidin-4-yl](methyl)amino}[1,3]thiazolo[4,5-c]pyridazin-3-yl)-5-(1H-pyrazol-4-yl)phenol] showed an IC50 of at most 100 nM.
With `Cn1cc2cc(-c3ccc4nc(C5(F)CCNCC5)sc4c3)ccc2n1` [Compound 41, 2-(4-fluoropiperidin-4-yl)-6-(2-methyl-2H-indazol-5-yl)-1,3-benzothiazole], the IC50 is 1000 to 3000 nM.
`Cc1cc(-c2ccc3nc(N(C)C4CCNCC4)sc3n2)cc2cn(C)nc12` [Compound 36, 5-(2,7-dimethyl-2H-indazol-5-yl)-N-methyl-N-(piperidin-4-yl)[1,3]thiazolo[5,4-b]pyridin-2-amine] showed an IC50 of 100 to 500 nM.
Consider `Cc1cn2cc(-c3cc(F)c4nc(N(C)C5CC(C)(C)NC(C)(C)C5)sc4c3)cc(C)c2n1` [Compound 39, 6-(2,8-dimethylimidazo[1,2-a]pyridin-6-yl)-4-fluoro-N-methyl-N-(2,2,6,6-tetramethylpiperidin-4-yl)-1,3-benzothiazol-2-amine], for which the IC50 was at most 100 nM.
`CN(c1nc2c(F)cc(-c3ccc4nn(C)cc4n3)cc2s1)C1CC2CCC(C1)N2` (stereo not drawn) [Compound 237, N-[(3-exo)-8-azabicyclo[3.2.1]oct-3-yl]-4-fluoro-N-methyl-6-(2-methyl-2H-pyrazolo[4,3-b]pyridin-5-yl)-1,3-benzothiazol-2-amine] showed an IC50 of 100 to 500 nM.
Molecule `Cc1cn2cc(-c3ncc4nc(N(C)C5CCNCC5)sc4n3)cc(C#N)c2n1` [Compound 196, 2-methyl-6-{2-[methyl(piperidin-4-yl)amino][1,3]thiazolo[5,4-d]pyrimidin-5-yl}imidazo[1,2-a]pyridine-8-carbonitrile] registered an IC50 of at most 100 nM.
`CN1CC=C(c2ccc3nc(-c4ccc5nn(C)cc5c4)sc3c2)CC1` [Compound 6, 2-(2-methyl-2H-indazol-5-yl)-6-(1-methyl-1,2,3,6-tetrahydropyridin-4-yl)-1,3-benzothiazole] came in with an IC50 of 1000 to 3000 nM.
To `CN(c1nc2nnc(-c3ccc(-c4cn[nH]c4)cc3O)cc2s1)C1CCNC1` (centres unmarked) [Compound 374, 2-{6-[methyl(pyrrolidin-3-yl)amino][1,3]thiazolo[4,5-c]pyridazin-3-yl}-5-(1H-pyrazol-4-yl)phenol] belongs at most 100 nM; to `CN(C)C1CCN(c2nc3ccc(-c4ccc5nn(C)cc5c4)cc3s2)CC1` [Compound 28, N,N-dimethyl-1-[6-(2-methyl-2H-indazol-5-yl)-1,3-benzothiazol-2-yl]piperidin-4-amine], 1000 to 3000 nM; to `CN(c1nc2ncc(-c3ccc(-c4cn[nH]c4)cc3O)nc2s1)C1CCNCC1` [Compound 274, 2-{2-[methyl(piperidin-4-yl)amino][1,3]thiazolo[4,5-b]pyrazin-6-yl}-5-(1H-pyrazol-yl)phenol], at most 100 nM.
For the molecule `Cc1cc(-c2nc3ccc(C4=CCNCC4)cc3s2)cc2cn(C)nc12` [Compound 49, 2-(2,7-dimethyl-2H-indazol-5-yl)-6-(1,2,3,6-tetrahydropyridin-4-yl)-1,3-benzothiazole], the IC50 fell in the range of 100 to 500 nM.
`CN(c1nc2cnc(-c3cc(F)c4nn(C)cc4c3)nc2s1)C1CC(C)(C)NC(C)(C)C1` [Compound 124, 5-(7-fluoro-2-methyl-2H-indazol-5-yl)-N-methyl-N-(2,2,6,6-tetramethylpiperidin-4-yl)[1,3]thiazolo[5,4-d]pyrimidin-2-amine]: the concentration for half-maximal inhibition (IC50) is at most 100 nM.
The same measure for `Cc1cn2nc(-c3cc(F)c4nc(C5CCNCC5)sc4c3)cc(C)c2n1` [Compound 47, 6-[4-fluoro-2-(piperidin-4-yl)-1,3-benzothiazol-6-yl]-2,8-dimethylimidazo[1,2-b]pyridazine]: at most 100 nM; for `Oc1cc(-c2cn[nH]c2)ccc1-c1cc2sc(N3CC4(CCCNC4)C3)nc2nn1` [Compound 338, 2-[6-(2,6-diazaspiro[3.5]nonan-2-yl)[1,3]thiazolo[4,5-c]pyridazin-3-yl]-5-(1H-pyrazol-4-yl)phenol]: 500 to 1000 nM; for `Cc1cn2cc(-c3ncc4nc(N(C)C5CC6CCC(C5)N6)sc4n3)cc(C#N)c2n1` (stereo not drawn) [Compound 207, 6-{2-[(3-exo)-8-azabicyclo[3.2.1]oct-3-yl(methyl)amino][1,3]thiazolo[5,4-d]pyrimidin-5-yl}-2-methylimidazo[1,2-a]pyridine-8-carbonitrile]: at most 100 nM.
In turn, `Cc1cn2cc(-c3cc4sc(N(C)[C@@H]5C[C@H]6CC[C@@H](C5)N6C)nc4cn3)cc(F)c2n1` [Compound 239, 6-(8-fluoro-2-methylimidazo[1,2-a]pyridin-6-yl)-N-methyl-N-[(3-exo)-8-methyl-8-azabicyclo[3.2.1]oct-3-yl][1,3]thiazolo[4,5-c]pyridin-2-amine] yielded an IC50 of 100 to 500 nM.
To `Cc1cn2cc(-c3cnc4nc(OC5CC(C)(C)NC(C)(C)C5)sc4n3)cc(C#N)c2n1` [Compound 181, 2-methyl-6-{2-[(2,2,6,6-tetramethylpiperidin-4-yl)oxy][1,3]thiazolo[4,5-b]pyrazin-6-yl}imidazo[1,2-a]pyridine-8-carbonitrile] belongs 100 to 500 nM.
To `Cc1cn2cc(-c3cc(F)c4nc(N(C)C5CCNCC5)sc4c3)cc(C#N)c2n1` [Compound 226, 6-{4-fluoro-2-[methyl(piperidin-4-yl)amino]-1,3-benzothiazol-6-yl}-2-methylimidazo[1,2-a]pyridine-8-carbonitrile] belongs at most 100 nM; to `Cc1cc(-c2ccc3nc(N(C)C4CC(C)NC(C)C4)sc3c2)cc2cn(C)nc12` (centres unmarked) [Compound 175, 6-(2,7-dimethyl-2H-indazol-5-yl)-N-(2,6-dimethylpiperidin-4-yl)-N-methyl-1,3-benzothiazol-2-amine], at most 100 nM.
Molecule `Cc1cc(-c2cnc3nc(N(C)C4CC(C)(C)NC(C)(C)C4)sc3c2)cc2cn(C)nc12` [Compound 17, 6-(2,7-dimethyl-2H-indazol-5-yl)-N-methyl-N-(2,2,6,6-tetramethylpiperidin-4-yl)[1,3]thiazolo[4,5-b]pyridin-2-amine] returned an IC50 of 100 to 500 nM.
As to `Cc1cn2cc(-c3ccc4nc(N(C)C5CC6(C)CCC(C)(C5)N6)sc4n3)cc(C#N)c2n1` [Compound 291, 6-(2-{[(1R,3s,5S)-1,5-dimethyl-8-azabicyclo[3.2.1]octan-3-yl](methyl)amino}[1,3]thiazolo[5,4-b]pyridin-5-yl)-2-methylimidazo[1,2-a]pyridine-8-carbonitrile], the IC50 is at most 100 nM.
The molecule `Cc1cn2nc(-c3cc(F)c4nc(N(C)C5CC(C)(C)NC(C)(C)C5)sc4c3)cc(C)c2n1` [Compound 127, 6-(2,8-dimethylimidazo[1,2-b]pyridazin-6-yl)-4-fluoro-N-methyl-N-(2,2,6,6-tetramethylpiperidin-4-yl)-1,3-benzothiazol-2-amine] gave an IC50 of at most 100 nM.
The same measure for `Cc1cn2cc(-c3cc4sc(NC5CC6CCC(C5)N6)nc4cn3)cc(C#N)c2n1` (stereo not drawn) [Compound 199, 6-{2-[(3-exo)-8-azabicyclo[3.2.1]oct-3-ylamino][1,3]thiazolo[4,5-c]pyridin-6-yl}-2-methylimidazo[1,2-a]pyridine-8-carbonitrile]: at most 100 nM.
For `Cc1cn2cc(-c3ncc4nc(N(C)C5CC(C)(C)NC(C)(C)C5)sc4n3)cc(C#N)c2n1` [Compound 170, 2-methyl-6-{2-[methyl(2,2,6,6-tetramethylpiperidin-4-yl)amino][1,3]thiazolo[5,4-d]pyrimidin-5-yl}imidazo[1,2-a]pyridine-8-carbonitrile], the IC50 is at most 100 nM.
Take `Cc1cn2cc(-c3cc4sc(N(C)C5CC(C)(C)NC(C)(C)C5)nc4cn3)cc(C(F)(F)F)c2n1` [Compound 116, N-methyl-6-[2-methyl-8-(trifluoromethyl)imidazo[1,2-a]pyridin-6-yl]-N-(2,2,6,6-tetramethylpiperidin-4-yl)[1,3]thiazolo[4,5-c]pyridin-2-amine]: the IC50 was in the range of 100 to 500 nM.
The same measure for `CN(c1nc2cnc(-c3cc(C#N)c4nn(C)cc4c3)cc2s1)C1CC2(C)CCC(C)(C1)N2` [Compound 287, 5-(2-{[(1R,3s,5S)-1,5-dimethyl-8-azabicyclo[3.2.1]octan-3-yl](methyl)amino}[1,3]thiazolo[4,5-c]pyridin-6-yl)-2-methyl-2H-indazole-7-carbonitrile]: at most 100 nM.
As to `CC1CC(N(C)c2nc3ccc(-c4ccc5nn(C)cc5c4)cc3s2)CC(C)N1` (centres unmarked) [Compound 176, N-(2,6-dimethylpiperidin-4-yl)-N-methyl-6-(2-methyl-2H-indazol-5-yl)-1,3-benzothiazol-2-amine], the IC50 is at most 100 nM.
To `CN(c1nc2cnc(-c3cc(F)c4nn(C)cc4c3)cc2s1)C1CC2CCC(C1)N2` (stereo not drawn) [Compound 205, N-[(3-exo)-8-azabicyclo[3.2.1]oct-3-yl]-6-(7-fluoro-2-methyl-2H-indazol-5-yl)-N-methyl[1,3]thiazolo[4,5-c]pyridin-2-amine] belongs at most 100 nM.
